{"source": "patent US12479845B2", "about": "“Imidazopyridine derivative compounds and use of same” (HANMI PHARM. CO., LTD., priority 2019, dated 2025)", "tested_on": "NCI-H1417 cells", "experiment": "Cell growth suppression test (CellTiter-Glo Luminescent Cell Viability Assay, 10 days treatment)", "format": "cell-based", "settings": "Homo sapiens, 240 h, treated for 10 days", "experimental": "Cell growth suppression effects of the synthesized compounds on NCI-H1417 cells were identified. The cells were treated with the synthesized compounds for 10 days. Then, in order to test the cell growth suppression, CellTiter-Glo Luminescent Cell Viability Assay (available from Promega, USA) was used. This test is to measure emission signals proportional to the number of ATPs based on a fixed amount of ATPs, which represents the presence of metabolically active cells, thereby determining the number of viable cells. The results are expressed as a Gl50 value. As for a control, GSK2879552 (available from GlaxoSmithKline USA) was used."}
{"compound": "O=C(O)c1ccc(CN2CCC(CN[C@@H]3C[C@H]3c3ccccc3)CC2)cc1", "note": "[Control, GSK2879552, reference compound]", "values": [{"measurement": "GI50", "result": 311, "unit": "nM"}]}
{"compound": "CCN(CC)c1ccc(-n2c(-c3ccc(C#N)c(F)c3)nc3c(N4CCC[C@@H](N)C4)ccnc32)cc1", "note": "[Example 21, (R)-4-(7-(3-aminopiperidine-1-yl)-3-(4-(diethylamino)phenyl)-3H-imidazo[4,5-b]pyridine-2-yl)-2-fluorobenzonitrile]", "values": [{"measurement": "GI50", "result": 27, "unit": "nM"}]}
{"compound": "N#Cc1ccc(-c2nc3c(N4CCC[C@@H](N)C4)ccnc3n2-c2ccc(OC3CCCC3)cc2F)cc1F", "note": "[Example 30]", "values": [{"measurement": "GI50", "result": 62, "unit": "nM"}]}
{"compound": "N#Cc1ccc(-c2nc3c(N4CCC[C@@H](N)C4)ccnc3n2-c2ccc(N3CCOCC3)cc2F)cc1F", "note": "[Example 33, (R)-4-(7-(3-aminopiperidine-1-yl)-3-(2-fluoro-4-morpholinophenyl)-3H-imidazo[4,5-b]pyridine-2-yl)-2-fluorobenzonitrile]", "values": [{"measurement": "GI50", "result": 44, "unit": "nM"}]}
{"compound": "CN1CCN(c2ccc(-n3c(-c4ccc(C#N)c(F)c4)nc4c(N5CCC[C@@H](N)C5)ccnc43)c(F)c2)CC1", "note": "[Example 34]", "values": [{"measurement": "GI50", "result": 101, "unit": "nM"}]}
{"compound": "N#Cc1ccc(-c2nc3c(N4CCC[C@@H](N)C4)ccnc3n2-c2cccc(OCCN3CCOCC3)c2)cc1F", "note": "[Example 37, (R)-4-(7-(3-aminopiperidine-1-yl)-3-(3-(2-morpholinoethoxy)phenyl)-3H-imidazo[4,5-b]pyridine-2-yl)-2-fluorobenzonitrile]", "values": [{"measurement": "GI50", "result": 148, "unit": "nM"}]}
{"compound": "N#Cc1ccc(-c2nc3c(N4CCC[C@@H](N)C4)ccnc3n2-c2ccc(C(=O)N3CCOCC3)cc2)cc1F", "note": "[Example 38, (R)-4-(7-(3-aminopiperidine-1-yl)-3-(4-(morpholino-4-carbonyl)phenyl)-3H-imidazo[4,5-b]pyridine-2-yl)-2-fluorobenzonitrile]", "values": [{"measurement": "GI50", "result": 612, "unit": "nM"}]}
{"compound": "N#Cc1ccc(-c2nc3c(N4CCC[C@@H](N)C4)ccnc3n2-c2ccc(O)cc2)cc1F", "note": "[Example 40, (R)-4-(7-(3-aminopiperidine-1-yl)-3-(4-hydroxyphenyl)-3H-imidazo[4,5-b]pyridine-2-yl)-2-fluorobenzonitrile]", "values": [{"measurement": "GI50", "result": 42, "unit": "nM"}]}
{"compound": "N#Cc1ccc(-c2nc3c(N4CCC[C@@H](N)C4)ccnc3n2-c2ccc3c(c2)CCC3)cc1F", "note": "[Example 42, (R)-4-(7-(3-aminopiperidine-1-yl)-3-(2,3-dihydro-1H-indene-5-yl)-3H-imidazo[4,5-b]pyridine-2-yl)-2-fluorobenzonitrile]", "values": [{"measurement": "GI50", "result": 26, "unit": "nM"}]}
{"compound": "CC(C)c1ccc(-n2c(-c3ccc(C#N)c(F)c3)nc3c(N4CCC[C@@H](N)C4)ccnc32)cc1", "note": "[Example 43, (R)-4-(7-(3-aminopiperidine-1-yl)-3-(4-isopropylphenyl)-3H-imidazo[4,5-b]pyridine-2-yl)-2-fluorobenzonitrile]", "values": [{"measurement": "GI50", "result": 60, "unit": "nM"}]}
{"compound": "Cn1ccc2cc(-n3c(-c4ccc(C#N)c(F)c4)nc4c(N5CCC[C@@H](N)C5)ccnc43)ccc21", "note": "[Example 44, (R)-4-(7-(3-aminopiperidine-1-yl)-3-(1-methyl-1H-indole-5-yl)-3H-imidazo(4,5-b)pyridine-2-yl)-2fluorobenzonitrile]", "values": [{"measurement": "GI50", "result": 171, "unit": "nM"}]}
{"compound": "Cc1ccc(-n2c(-c3ccc(C#N)c(F)c3)nc3c(N4CCC[C@@H](N)C4)ccnc32)nc1", "note": "[Example 45, (R)-4-(7-(3-aminopiperidine-1-yl)-3-(5-methylpyridine-2-yl)-3H-imidazo[4,5-b]pyridine-2-yl)-2-fluorobenzonitrile]", "values": [{"measurement": "GI50", "result": 171, "unit": "nM"}]}
{"compound": "N#Cc1ccc(-c2nc3c(N4CCC[C@@H](N)C4)ccnc3n2-c2ccc(C3CCCCC3)cc2)cc1F", "note": "[Example 46, (R)-4-(7-(3-aminopiperidine-1-yl)-3-(4-cyclohexylphenyl)-3H-imidazo[4,5-b]pyridine-2-yl)-2-fluorobenzonitrile]", "values": [{"measurement": "GI50", "result": 303, "unit": "nM"}]}
{"compound": "C=Cc1cccc(-n2c(-c3ccc(C#N)c(F)c3)nc3c(N4CCC[C@@H](N)C4)ccnc32)c1", "note": "[Example 47, (R)-4-(7-(3-aminopiperidine-1-yl)-3-(3-vinylphenyl)-3H-imidazo[4,5-b]pyridine-2-yl)-2-fluorobenzonitrile]", "values": [{"measurement": "GI50", "result": 360, "unit": "nM"}]}
